Entries after “also recorded” stand apart in the source; their conditions may differ.
Experiments:
[1] = test system: LPS/HI-injured P7 rat pups; assay: LPS-sensitized HI (LPS/HI) brain injury model in P7 rats; assay type: in vivo
Description: To test whether intrauterine infection accelerates the development of TH17 lymphocytes, the expression of IL-23 receptor (IL-23R) mRNA, a marker of TH17 cells, was compared in aliquots of cord blood mononuclear cells isolated from late preterm neonates (32-36 gestational weeks) with and without histological chorioamnionitis. […] A well-characterized LPS-sensitized HI brain injury model in P7 rats was used to compare the effects of low-dose LPS (0.3 mg/kg, IP), HI, and combined LPS/HI on the expression of IL-23R mRNA in the peripheral blood mononuclear cells.
The effects of FTY720 administration (1 μg/g, IP) after LPS/HI insult in P7 rat pups were examined.
(§1) Flow cytometry we used to compare the percentage of CD4+ IL-17A+T-cells at 24 h after LPS, HI (90 min), or LPS+80 min HI brain injury. A longer duration of pure-HI insult was chosen because 80-min HI produced milder brain damage and little neuroinflammation. The TH17/IL-17 activity was compared under pure-HI (90 min) and LPS/HI (80 min) insults that produce similar levels of brain injury. […] The dual LPS/HI insult led to a significant increase to 21% of CD4+ IL-17A+ T-cells, which was reduced to 12% by FTY720 treatment (FIG. 3A).
(§2) Whether (p)FTY720 exerts direct neuroprotection was investigated. The effects of FTY720 on pure-HI (90 min) and LPS-sensitized HI insult (80 min) were compared reasoning that FTY720 should oppose both insults if its benefits are derived primarily from neuronal protection. Of note, because 80 min pure-HI insult caused little brain damage, a longer duration of pure-HI (90 min) we used in this experiment.
Magnetic resonance imaging (MRI) and behavioral testing were used to assess both acute and long-term effects of FTY720 treatment in LPS/HI injury. […] Two weeks later, the TBSS-identified at-risk gray and white matter became atrophic or distorted in saline-treated rat pups.

pure-HI injured rat pups = assay: pure-HI (90 min) brain injury in rat pups; assay type: in vivo
Description: as §1, §2

[2] = test system: microglial activation in P7 rats; assay: intracerebroventricular (ICV) injection of LPS in P7 rats, model of direct microglial activation; assay type: in vivo, rat; conditions: FTY720 1 μg/g IP; LPS 2 μg ICV
Description: (§3) Experiments herein indicate FTY720 primarily blocks brain influx of leukocytes to prevent LPS/HI-induced neuroinflammation. […] To distinguish between these two scenarios, the effects of FTY720 was tested on the MCP1 induction following cerebral ventricle-injection of LPS, a paradigm of direct microglial activation. […] Intracerebroventricular (ICV) injection of LPS was performed in bitransgenic CX3CR1-GFP; CCR2-RFP mice, in which the microglia and circulating monocytes are marked by the green and red fluorescence protein, respectively. In unchallenged mice, the brains were largely devoid of monocytes and the microglial processes were excluded from the hippocampal pyramidal cell layer.

[3] = test system: microglia and monocytes in CX3CR1-GFP; CCR2-RFP mice; assay: ICV injection of LPS in P10 CX3CR1-GFP; CCR2-RFP mice; assay type: in vivo; conditions: 24 h after ICV LPS 1 μg; FTY720 1 μg/g
Description: In untouched mice, few GFP+ microglial processes extended into the pyramidal cell layer in the hippocampal (CA), and almost no RFP+ monocytes were detected in the brain.
as §3

SM826 microglial cells = assay: LPS-induced activation of immortalized microglia SM826 cells; assay type: cell-based
From the text: These in-vivo and in-vitro results argued against direct inhibition of microglia by FTY720, which prompted us to examine the expression of S1P receptor isoforms in neonatal rat microglia. […] Thus, the effects of pFTY720 and S1P on LPS-induced expression of IL-23 (a key factor for TH17 cell differentiation), TNFα (Tumor Necrosis Factor-alpha), and iNOS mRNA were compared. […] Finally, the effects of S1P and Tat-NBD, an anti-NFKB peptide, were compared on the intracellular signaling responses to LPS in immortalized microglial cells.

LPS/HI-injured P10 mice = assay: LPS/HI injury in P10 mice; assay type: in vivo; conditions: two doses of 25 mg/kg, 16 h pre- & 1 h post-LPS/HI
Description: An experiment was performed to test the effects of SR1001, a small-molecule inhibitor of RORc, in LPS/HI injury in P10 mice.

S1PR2 = S1PR2 (Homo sapiens, UniProt O95136); conditions: Mandala et al., 2002; cited from earlier work
Chain of S1PR2 (O95136 whole entry, species assumed): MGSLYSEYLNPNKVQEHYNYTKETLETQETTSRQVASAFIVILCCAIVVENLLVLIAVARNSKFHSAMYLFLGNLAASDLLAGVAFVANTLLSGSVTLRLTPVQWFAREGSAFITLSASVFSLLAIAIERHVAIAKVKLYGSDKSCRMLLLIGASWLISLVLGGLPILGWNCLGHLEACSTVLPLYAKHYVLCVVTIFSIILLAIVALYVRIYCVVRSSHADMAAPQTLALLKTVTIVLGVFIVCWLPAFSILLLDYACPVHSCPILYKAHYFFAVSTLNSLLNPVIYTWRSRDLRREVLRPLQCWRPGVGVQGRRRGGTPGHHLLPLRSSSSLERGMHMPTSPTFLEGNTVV

CCCCCCCCc1ccc(CCC(N)(CO)CO)cc1 [FTY720, 2-amino-2-[2-(4-octylphenyl)ethyl]propane-1,3-diol]
LPS/HI-induced MCP1 expression in the brain (ELISA) ([1]; 18-24 h following LPS/HI): markedly reduced; also recorded: significant attenuation | LPS/HI-induced MCP1 in the plasma (ELISA) ([1]; 18-24 h following LPS/HI): failed to prevent | post-LPS/HI induction of TSPO mRNA (marker for activated microglia) ([1]; 18-24 h following LPS/HI): markedly reduced | ribbon-like CD43 immunoreactivity in the ipsilateral choroid plexus ([1]; 4 h after LPS/HI): preserved; also recorded: less pronounced | IL-23R mRNA levels in peripheral blood mononuclear cells (normalized to actin) ([1]; 4 h after LPS/HI, FTY720 1 μg/g IP): blocked the increase | influx of CD43+ leukocytes in choroid plexus / ipsilateral subcortical white matter ([1]; 4 h post-LPS/HI): mitigated the influx; also recorded: absence of CD43+ cells; also recorded: not in the contralateral hemisphere or after the FTY720 treatment | nuclear NF-κB activity (EMSA, brain nuclear extract) ([1]; 4 h recovery from LPS/HI): greatly reduced; also recorded: prevented the high-order DNA-protein complex | reduction/degradation of cytoplasmic IκBα in the ipsilateral hemisphere ([1]; 4 h recovery from LPS/HI): greatly reduced; also recorded: averted | BBB permeability (NaF fluorescence / extravasation) ([1]; 24 h after LPS/HI): markedly attenuated; also recorded: significantly reduced | MMP9 induction/activity in ipsilateral hemisphere (zymogram) ([1]; 24 h after LPS/HI): diminished; also recorded: absence of MMP9 induction | ADC (apparent diffusion coefficient) signals in the cerebral cortex (MRI) ([1]; 24 h after LPS/HI, vs saline): mitigated; also recorded: significant preservation | increase of brain MCP1 protein (cytokine array) ([1]; 24 h after LPS/HI, 9.7-fold without treatment): 3 fold | brain cytoarchitectural distinctions in the ipsilateral hemisphere (MEMRI) ([1]; 24 h post-LPS/HI): preserved | increased sodium concentration in the ipsilateral hemisphere (sodium MRI) ([1]; 24 h recovery): mitigated | CD43+ leukocytes in the cortical gray matter ([1]; 24 h recovery after LPS/HI): absent | accumulation of CD43+ leukocytes in the leptomeningeal space ([1]; 24 h recovery after LPS/HI): prevented the accumulation | latency to fall on rotarods ([1]; 24 days of age after LPS/HI): near-normal | brain atrophy ([1]; LPS/HI injury): dose-dependent reduction | LPS/HI-induced brain Gata3 mRNA ([1]; RT-PCR): not | LPS/HI-induced brain IL-13 mRNA ([1]; RT-PCR): not | LPS/HI-induced brain IL-17A mRNA ([1]; RT-PCR): significantly decreased | LPS/HI-induced brain IL-23 receptor mRNA ([1]; RT-PCR): significantly decreased | LPS/HI-induced brain RORc mRNA ([1]; RT-PCR): significantly decreased | LPS/HI-induced brain Tbx21/T-bet mRNA ([1]; RT-PCR): significantly attenuated; also recorded: significantly decreased | gain in body weight ([1]; by 24 days of age after LPS/HI): near-normal gain | impairment of neonatal development ([1]; rat, in vivo): does not impair neonatal development | LPS/HI-induced tissue loss salvaged in the hippocampus and the cerebral cortex ([1]; treatment started within 30 min after injury): > 90% | HI-induced MMP9 activation in ipsilateral cortical hemisphere (zymogram) (pure-HI injured rat pups; 24 h recovery, pure-HI): failed to prevent | brain atrophy / injury after pure-HI (pure-HI injured rat pups; pure-HI 90 min, acute FTY720 treatment): failed to prevent; also recorded: ineffective | worsening of pure-HI brain injury (pure-HI injured rat pups; rat, in vivo): does not impair neonatal development or worsen pure-HI brain injury | induction of MCP1 after ICV injection of LPS [2]: unable to prevent | microglial processes in hippocampal pyramidal cell layer and monocytes in the brain [3]: showed intrusion of hypertrophic microglia processes in the hippocampal pyramidal cell layer and a massive influx of monocytes; also recorded: hypertrophic microglial processes extended into the pyramidal cell layer and a large number of monocytes were found in the brain

CCCCCCCCCCCCC/C=C/[C@@H](O)[C@@H](N)COP(=O)(O)O [S1P, sphingosine-1-phosphate]
LPS-induced IL-23 mRNA (SM826 microglial cells): neither phospho-FTY720 nor sphingosine-1-phosphate (S1P) prevented | LPS-induced IκBα degradation in the cytosol (immunoblot) (SM826 microglial cells; 5, 20 μM, LPS 5 ng/ml, 30 min): no opposing effects; also recorded: lacked this effect | LPS-induced nuclear accumulation of NFκB/RelA (immunoblot) (SM826 microglial cells; 5, 20 μM, LPS 5 ng/ml, 30 min): no opposing effects; also recorded: lacked this effect | S1PR1 mRNA (SM826 microglial cells; negative feedback of the signaling pathway): dose-dependent reduction | microglial activation: LPS-induced expression of IL-23, TNFα and iNOS mRNA (SM826 microglial cells; up to 10 μM): neither pFTY720 nor S1P (up to 10 μM) suppressed

CC(=O)Nc1nc(C)c(S(=O)(=O)Nc2ccc(C(O)(C(F)(F)F)C(F)(F)F)cc2)s1 [SR1001, N-(5-(N-(4-(1,1,1,3,3,3-hexafluoro-2-hydroxypropan-2-yl)phenyl)sulphamoyl)-4-methylthiazol-2-yl)acetamide]
brain atrophy (tissue loss) (LPS/HI-injured P10 mice): significantly reduced | induction of TH17 cells (LPS/HI-injured P10 mice): significantly reduced | microglial activation/TSPO marker (LPS/HI-injured P10 mice): significantly reduced

CCCCCCCCc1ccc(CCC(N)(CO)COP(=O)(O)O)cc1 (centres unmarked) [phospho-FTY720]
LPS-induced IL-23 mRNA (SM826 microglial cells): neither phospho-FTY720 nor sphingosine-1-phosphate (S1P) prevented | LPS-induced COX2 expression (SM826 microglial cells; 2-10 μM, LPS 5 ng/ml): failed to prevent | LPS-induced iNOS expression (SM826 microglial cells; 2-10 μM, LPS 5 ng/ml): failed to prevent | microglial activation: LPS-induced expression of IL-23, TNFα and iNOS mRNA (SM826 microglial cells; up to 10 μM): neither pFTY720 nor S1P (up to 10 μM) suppressed | LPS-mediated induction of IL-1β (SM826 microglial cells; up to 10 μM, LPS 5 ng/ml): failed to attenuate | LPS-mediated induction of IL-6 (SM826 microglial cells; up to 10 μM, LPS 5 ng/ml): failed to attenuate | binding affinity to the S1PR2 isoform (S1PR2): lacks binding affinity

Source: patent publication US20160317473A1, “METHODS OF TREATING OR PREVENTING BRAIN DAMAGE DUE TO HYPOXIC-ISCHEMIA” (EMORY UNIVERSITY, priority 2014, published 2016)
